The assay deals with T1, Human Polθ polymerase domain (aa1820-2590) (Homo sapiens, UniProt O75417).
T1 construct: Human Polθ polymerase domain (aa1820-2590) was expressed in E. coli; made in house; host or cells: E. coli
T1 sequence (O75417 1820-2590): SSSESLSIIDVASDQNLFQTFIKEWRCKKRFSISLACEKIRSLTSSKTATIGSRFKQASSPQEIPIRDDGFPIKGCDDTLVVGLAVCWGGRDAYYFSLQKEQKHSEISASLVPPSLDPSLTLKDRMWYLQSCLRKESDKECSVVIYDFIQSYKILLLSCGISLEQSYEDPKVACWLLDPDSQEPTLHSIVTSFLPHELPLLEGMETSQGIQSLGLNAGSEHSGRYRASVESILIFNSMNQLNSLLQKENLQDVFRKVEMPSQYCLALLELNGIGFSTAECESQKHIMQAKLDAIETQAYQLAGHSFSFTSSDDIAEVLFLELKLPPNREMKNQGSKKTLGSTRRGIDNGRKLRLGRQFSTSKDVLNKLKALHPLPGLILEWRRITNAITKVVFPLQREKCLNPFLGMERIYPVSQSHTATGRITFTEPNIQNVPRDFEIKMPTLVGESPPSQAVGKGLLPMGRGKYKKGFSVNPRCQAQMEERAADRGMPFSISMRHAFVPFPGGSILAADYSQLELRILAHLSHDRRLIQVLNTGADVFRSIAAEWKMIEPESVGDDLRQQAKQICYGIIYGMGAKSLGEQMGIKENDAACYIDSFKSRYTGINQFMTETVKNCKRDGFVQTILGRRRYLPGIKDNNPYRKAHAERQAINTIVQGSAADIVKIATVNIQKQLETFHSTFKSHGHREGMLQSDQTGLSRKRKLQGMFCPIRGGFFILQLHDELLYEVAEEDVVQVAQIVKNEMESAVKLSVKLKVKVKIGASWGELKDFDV
The assay can be described thus: Polθ Polymerase Domain Kinact/KI Assay (PicoGreen). It counts as biochemical. The settings on record: 0.8 nM Polθ, 100 nM DNA substrate, kobs vs [I] fit for 2-step covalent inhibitor. The procedure, abridged:
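PicoGreen fluorescence read-out of primer extension; progress curves per inhibitor concentration fitted for kobs, then kobs vs [I] fitted to a two-step covalent model to give Kinact and KI. Conditions: 0.8 nM enzyme, 100 nM DNA substrate, […].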
`C=CC(=O)N1Cc2nc(CN3C[C@H]4CC(=O)N(c5cc(C(F)(F)F)cc(C)n5)[C@@H]4C(=O)N(C)c4cccc(Cl)c43)cn2CC1C(F)(F)F` (single isomer, unassigned) [Example 293b] had a Kinact/Kl of 1.28 µM⁻¹ s⁻¹.

In turn, `C=CC(=O)N1Cc2ccc(CN3C[C@H]4CC(=O)N(c5cc(C(F)(F)F)cc(C)n5)[C@@H]4C(=O)N(C)c4cccc(C)c43)nc2C1` [Example 240, (3aR,11aS)-5-((6-acryloyl-6,7-dihydro-5H-pyrrolo[3,4-b]pyridin-2-yl)methyl)-6,10-dimethyl-1-(6-methyl-4-(trifluoromethyl)pyridin-2-yl)-1,3a,4,5,10,11a-hexahydro-2H-benzo[b]pyrrolo[2,3-f][1,4]diazocine-2,11(3H)-dione] displayed a Kinact/Kl of 1.55 µM⁻¹ s⁻¹.

Regarding `C=CC(=O)N1CCn2c(nc(CN3C[C@H]4CC(=O)N(c5cc(C(F)(F)F)cc(C)n5)[C@@H]4C(=O)N(C)c4cccc(C)c43)c2C)C1` [Example 74, (3aR,11aS)-5-((7-acryloyl-3-methyl-5,6,7,8-tetrahydroimidazo[1,2-a]pyrazin-2-yl)methyl)-6,10-dimethyl-1-(6-methyl-4-(trifluoromethyl)pyridin-2-yl)-1,3a,4,5,10,11a-hexahydro-2H-benzo[b]pyrrolo[2,3-f][1,4]diazocine-2,11(3H)-dione], the Kinact/Kl was found to be 5.83 µM⁻¹ s⁻¹.

Regarding `C=C(CN(C)C)C(=O)N1CC(CCCCN2C[C@H]3CC(=O)N(c4cc(C(F)(F)F)cc(C)n4)[C@@H]3C(=O)N(C)c3cccc(Cl)c32)C1` [Example 161, (3aR, 11aS)-6-chloro-5-(4-(1-(2-((dimethylamino)methyl)acryloyl)azetidin-3-yl)butyl)-10-methyl-1-(6-methyl-4-(trifluoromethyl)pyridin-2-yl)-1,3a,4,5,10,11a-hexahydro-2H-benzo[b]pyrrolo[2,3-f][1,4]diazocine-2,11(3H)-dione], the Kinact/Kl stood at 5.08 µM⁻¹ s⁻¹.

Compound `C=CC(=O)N1C[C@H]2CN(CCN3C[C@H]4CC(=O)N(c5cc(C(F)(F)F)cc(C)n5)[C@@H]4C(=O)N(C)c4cccc(F)c43)CCN2C(=O)[C@H]1C` (single isomer, unassigned) [Example 58] showed a Kinact/Kl of 0.50 µM⁻¹ s⁻¹.

Take `C=C(CN(C)C)C(=O)N1CCC[C@@H]1c1ccc(CN2C[C@H]3CC(=O)N(c4cc(C(F)(F)F)cc(C)n4)[C@@H]3C(=O)N(C)c3cccc(F)c32)cc1` (racemic) [Example 171a, (3aR,11aS)-5-(4-((R/S)-1-(2-((di-methylamino)-methyl)acryloyl)-pyrrolidin-2-yl)-benzyl)-6-fluoro-10-methyl-1-(6-methyl-4-(tri-fluoromethyl)-pyridin-2-yl)-1,3a,4,5,10,11a-hexahydro-2H-benzo[b]pyrrolo [2,3-f][1,4]diazo-cine-2,11(3H)-dione]: the Kinact/Kl stood at 2.29 µM⁻¹ s⁻¹.

On to `C=CC(=O)N1CCN(CCN2C[C@H]3CC(=O)N(c4cc(C(F)(F)F)cc(C)n4)[C@@H]3C(=O)N(C)c3cccc(Cl)c32)CC1CC#N` (mixture of isomers) [Example 258b, 2-((S/R)-1-acryloyl-4-(2-((3aR,11aS)-6-chloro-10-methyl-1-(6-methyl-4-(trifluoromethyl)pyridin-2-yl)-2,11-dioxo-1,2,3,3a,4,10,11,11a-octahydro-5H-benzo[b]pyrrolo[2,3-f][1,4]diazocin-5-yl)ethyl)piperazin-2-yl)acetonitrile], for which the Kinact/Kl worked out at 1.53 µM⁻¹ s⁻¹.

For the compound `C=CC(=O)N1Cc2ccc(CN3C[C@H]4CC(=O)N(c5cc(C(F)(F)F)cc(C)n5)[C@@H]4C(=O)N(C)c4cccc(Cl)c43)nc2C1CC#N` (single isomer, unassigned) [Example 289a], the Kinact/Kl was determined as 1.26 µM⁻¹ s⁻¹.

Compound `Cc1cc(C(F)(F)F)cc(N2C(=O)C[C@@H]3CN(CCCC(F)CNC(=O)/C=C/CN(C)C)c4c(Cl)cccc4N(C)C(=O)[C@H]32)n1` (stereo partly drawn) [Example 295, (E)-N-(5-((3aR,11aS)-6-chloro-10-methyl-1-(6-methyl-4-(trifluoromethyl)pyridin-2-yl)-2,11-dioxo-1,2,3,3a,4,10,11,11a-octahydro-5H-benzo[b]pyrrolo[2,3-f][1,4]diazocin-5-yl)-2-fluoropentyl)-4-(dimethylamino)but-2-enamide] showed a Kinact/Kl of 1.62 µM⁻¹ s⁻¹.

Regarding `Cc1cc(C(F)(F)F)cc(N2C(=O)C[C@@H]3CN(Cc4ccc(NC(=O)/C=C/CN(C)C)c(F)c4)c4c(Cl)cccc4N(C)C(=O)[C@H]32)n1` [Example 245, (E)-N-(4-(((3aR,11aS)-6-chloro-10-methyl-1-(6-methyl-4-(trifluoromethyl)pyridin-2-yl)-2,11-dioxo-1,2,3,3a,4,10,11,11a-octahydro-5H-benzo[b]pyrrolo[2,3-f][1,4]diazocin-5-yl)methyl)-2-fluorophenyl)-4-(dimethylamino)but-2-enamide], the Kinact/Kl was determined as 1.90 µM⁻¹ s⁻¹.

In turn, `C=C(CN1CCN(C)CC1)C(=O)N1CC(COCCN2C[C@H]3CC(=O)N(c4cc(C(F)(F)F)cc(C)n4)[C@@H]3C(=O)N(C)c3cccc(C)c32)C1` [Example 193, (3aR,11aS)-6,10-dimethyl-1-(6-methyl-4-(trifluoro-methyl)pyridin-2-yl)-5-(2-((1-(2-((4-methylpiperazin-1-yl)methyl)acrylo-yl)azetidin-3-yl)-methoxy)ethyl)-1,3a,4,5,10,11a-hexahydro-2H-benzo[b]pyrrolo [2,3-f][1,4]diazo-cine-2,11(3H)-dione] registered a Kinact/Kl of 2.58 µM⁻¹ s⁻¹.

Regarding `C=CC(=O)N1CCC[C@@H]1c1nc(CN2C[C@H]3CC(=O)N(c4cc(C(F)(F)F)cc(C)n4)[C@@H]3C(=O)N(C)c3cccc(C)c32)no1` [Example 270, (3aR,11aS)-5-((5-((R)-1-acryloylpyrrolidin-2-yl)-1,2,4-oxadiazol-3-yl)methyl)-6,10-dimethyl-1-(6-methyl-4-(trifluoromethyl)pyridin-2-yl)-1,3a,4,5,10,11a-hexahydro-2H-benzo[b]pyrrolo[2,3-f][1,4]diazocine-2,11(3H)-dione], the Kinact/Kl stood at 0.11 µM⁻¹ s⁻¹.

Compound `C=CC(=O)N1C[C@@H]2CN(CCN3C[C@H]4CC(=O)N(c5cc(C(F)(F)F)cc(C)n5)[C@@H]4C(=O)N(C)c4cccc(F)c43)CCN2C(=O)[C@H]1C` (single isomer, unassigned) [Example 60] came in with a Kinact/Kl of 0.30 µM⁻¹ s⁻¹.

Consider `C=CC(=O)N1CC(N2CC[C@@H](CCN3C[C@H]4CC(=O)N(c5cc(C(F)(F)F)cc(C)n5)[C@@H]4C(=O)N(C)c4cccc(Cl)c43)C2)C1` [Example 220, (3aR,11aS)-5-(2-((S)-1-(1-acryloylazetidin-3-yl)pyrrolidin-3-yl)ethyl)-6-chloro-10-methyl-1-(6-methyl-4-(trifluoromethyl)pyridin-2-yl)-1,3a,4,5,10,11a-hexahydro-2H-benzo[b]pyrrolo [2,3-f][1,4] diazocine-2,11(3H)-dione], for which the Kinact/Kl was determined as 3.66 µM⁻¹ s⁻¹.

`C=CC(=O)Nc1ccc(CN2C[C@H]3CC(=O)N(c4cc(C(F)(F)F)cc(C)n4)[C@@H]3C(=O)N(C)c3cccc(C)c32)cc1N(C)CCN(C)C` [Example 91, N-(4-(((3aR,11aS)-6,10-dimethyl-1-(6-methyl-4-(trifluoromethyl)pyridin-2-yl)-2,11-dioxo-1,2,3,3a,4,10,11,11a-octahydro-5H-benzo[b]pyrrolo[2,3-f][1,4]diazocin-5-yl)methyl)-2-((2-(dimethylamino)ethyl)(methyl)amino)phenyl)acrylamide] yielded a Kinact/Kl of 4.38 µM⁻¹ s⁻¹.

`Cc1cc(C(F)(F)F)cc(N2C(=O)C[C@@H]3CN(Cc4cccc(C5CN(C(=O)/C=C/CN(C)C)C5)c4)c4c(F)cccc4N(C)C(=O)[C@H]32)n1` [Example 147, (3aR,11aS)-5-(3-(1-((E)-4-(dimethylamino)but-2-enoyl)azetidin-3-yl)benzyl)-6-fluoro-10-methyl-1-(6-methyl-4-(trifluoromethyl)pyridin-2-yl)-1,3a,4,5,10,11a-hexahydro-2H-benzo[b]pyrrolo[2,3-f][1,4]diazocine-2,11(3H)-dione] gave a Kinact/Kl of 0.61 µM⁻¹ s⁻¹.

`Cc1cc(C(F)(F)F)cc(N2C(=O)C[C@@H]3CN(CCCOC4CN(C(=O)/C(Cl)=C/CN(C)C)C4)c4c(F)cccc4N(C)C(=O)[C@H]32)n1` [Example 79, (3aR,11aS)-5-(3-((1-((Z)-2-chloro-4-(dimethylamino)but-2-enoyl)azetidin-3-yl)oxy)propyl)-6-fluoro-10-methyl-1-(6-methyl-4-(trifluoromethyl)pyridin-2-yl)-1,3a,4,5,10,11a-hexahydro-2H-benzo[b]pyrrolo[2,3-f][1,4]diazocine-2,11(3H)-dione]: the Kinact/Kl was determined as 1.46 µM⁻¹ s⁻¹.

The record behind these values is patent US20250230165A1, “HETEROCYCLIC COMPOUNDS FOR USE IN THE TREATMENT OF CANCER” (ARTIOS PHARMA LIMITED, priority 2021, published 2025).
